Results published in ChEMBL document CHEMBL3507680, “University of Dundee, Gates Library screen for HepG2 cell viability”.

Assay: Human HepG2 cell viability assay in 384 well format
Assay type: toxicity, cell-based
Parameters: dose 125 nL, time 70.5 hour; cytotoxicity at 70.5 h: concentration not given beside the values
Details: HepG2 cells, read-out: Inhibition

Compound | cytotoxicity at 70.5 h
CCCn1nccc1S(=O)(=O)N1CCC2(CCCN(C(C)C)C2=O)C1 (stereo not drawn) | 17.4%
COc1cccc(-c2cc(C(=O)NCCCn3cnnc3)[nH]n2)c1 | -11.1%
CCOc1cc(CNCc2nc(C)cc(=O)[nH]2)c(Cl)cc1OC(C)C | -3.61%
O=C1COc2ccccc2N1CCCn1cnnn1 | -9.54%
O=C1CCC2(CCCN(C(=O)c3ncc[nH]3)C2)CN1CCc1c[nH]cn1 (stereo not drawn) | 13.6%
CN1CCC(N(C)CCC(=O)N2CCC(Oc3ccc(Cl)cc3)CC2)C1 (stereo not drawn) | -5.97%
Cn1cc(Cl)c(CN(Cc2ccsc2)CC2CCCO2)n1 (stereo not drawn) | -5.58%
COCCN1CCC(C(=O)N(C)Cc2c[nH]c3ccc(C)cc23)C1 (stereo not drawn) | -8.11%
OC[C@H]1CN(Cc2c(Cl)cncc2Cl)C[C@H]1CN1CCCC1 | -9.31%
CS(=O)(=O)c1ncc(CN2CCN3CCCC3C2)n1CC1CCCCC1 (stereo not drawn) | -6.4%
Cc1cc(NC(=O)CNCc2csc(-c3cnccn3)n2)ccc1Cl | -6.43%
CC(C)c1cc(C(=O)NCC2CCCN(c3ncccn3)C2)n(C)n1 (stereo not drawn) | -5.82%
O=C1NCCCCC1NC(=O)C1(Oc2ccc(Cl)cc2)CCNCC1 (stereo not drawn) | -7.72%
Cc1ccc2nc(C(=O)N3CC(c4cccnc4)C3)cn2c1 | -6.09%
COCCN1C[C@H](NC(=O)CCC(F)(F)F)[C@@H](C(C)C)C1 | -2.58%
NC(=O)c1cn2cc(-c3ccccc3Cl)n(CC3CC3)c(=O)c2n1 | -9.1%
NCCc1nc(N(Cc2cncs2)C2CC2)c2ccccc2n1 | 24.1%
Cc1cc(C)n(CCCC(=O)N2CC[C@H]3NCCC[C@]3(CO)C2)n1 | -2.14%
CC(=O)Nc1ccc2nc(-c3nccn3C[C@@H]3CCCO3)ccc2c1 | -11.8%
COCCN(Cc1sccc1C)C(=O)COc1ccccc1O | -4.7%
CCn1c(Cn2cccn2)nnc1C1CCN(Cc2ccc(C)o2)CC1 | 19.3%
Cc1ccc(C(F)(F)F)cc1C(=O)N[C@H]1CN(CCO)C[C@@H]1C1CC1 | -3.09%

Compound | cytotoxicity at 70.5 h
Cc1cc(N(C)CCCn2cccn2)nc(N)n1 | -12.7%
COc1ccc(F)c(CNC2CCCc3nc(N(C)C)ncc32)c1 (stereo not drawn) | -11.5%
OC1(CNCc2noc(Cc3ccccc3)n2)CNCCOC1 (stereo not drawn) | -4.33%
CCN(CC)C(=O)N1CCN(Cc2cnc(C)nc2)[C@H]2CS(=O)(=O)C[C@H]21 | -17.5%
CCN(Cc1nc(COC)no1)Cc1cc2ccc(F)cc2[nH]c1=O | -12.1%
CCC(C)Oc1ccc(CNCCNC(C)=O)cc1OC (stereo not drawn) | -6.94%
CCc1nccn1CC(=O)N1C[C@H]2CC[C@@H]1CN(c1ncccn1)C2 | -0.942%
CN1CC(c2ccccc2)CC12CCN(C(=O)c1cccnc1)CC2 (stereo not drawn) | -9.06%
Cc1oc(C(C)C)cc1C(=O)N1C[C@H]2CC[C@@H]1CN(c1ncccn1)C2 | -13.7%
COc1ccc(S(=O)(=O)N[C@H]2CN(C(C)=O)C[C@@H]2C(C)C)cc1F | -12.5%
CCCc1cc(C(=O)N[C@@H](CO)[C@@H](O)c2ccccc2)n(C)n1 | 0.909%
CCc1cn[nH]c1C1CCN(c2cc(C)c3ccc(OC)cc3n2)CC1 | 9.99%
CCc1nc(C)sc1CN(Cc1ccncc1)C1CCN(C)CC1 | -6.03%
CC1(C)CC(CN2CCC3(CCC(=O)N(CCO)C3)CC2)CCO1 (stereo not drawn) | -10.6%
Cc1ccc(C(=O)N2CCC3(CCC(=O)N(CC(C)O)C3)CC2)c(O)c1 (stereo not drawn) | -7.72%
CC(C)Cn1cncc1-c1nc2c([nH]1)CCCNC2=O | -6.28%
N[C@H]1CC[C@@H](CN2CCCn3nc(CNC(=O)C4CCC4)cc3C2)CC1 | -9.19%
CC(C)C(O)C1CCN(c2ccnc(C(=O)NCc3ccco3)c2)CC1 (stereo not drawn) | -14.1%
CC(=O)N1CCCC(C(=O)NCc2noc(Cc3ccccc3)n2)C1 (stereo not drawn) | -11.1%
CC(C)Cc1cc(C(=O)N2CCC(C(=O)N3CCOCC3)CC2)on1 | -7.8%
Cc1cccc(CNC2CC(=O)N(CCc3cccc(Cl)c3)C2)n1 (stereo not drawn) | -8.39%
COc1cnc(N2C[C@H](CO)C[C@H](CN3CCOCC3)C2)nc1 | -2.01%

Compound | cytotoxicity at 70.5 h
CN(C)CCCNC(=O)C(c1cccc(F)c1)N(C)C (stereo not drawn) | -2.43%
c1ccc(CN2CCC(NCCSc3cnn[nH]3)CC2)cc1 | 2.48%
COCCN(Cc1ccccc1Cl)C(=O)c1c(C)cc(C)[nH]c1=O | -2.7%
COCc1noc(CCNc2ncnc3c2CCNCC3)n1 | -8.6%
COCCC1(C(=O)O)CCCN(C(=O)c2cc(C)oc2C)C1 (stereo not drawn) | -15.5%
O=C(NCc1sc2ccccc2c1Cl)c1cc2n(n1)CCNC2 | 18.3%
O=C(c1ccc2c(c1)OCO2)N1CCCC(Nc2ccc(F)cc2)C1 (stereo not drawn) | -2.98%
Cn1ncc2c(NCC3CCS(=O)(=O)C3)nc(C3CCCC3)nc21 (stereo not drawn) | -3.73%
Cc1n[nH]c(SCC(=O)N2C[C@H]3CC[C@@H]2CN(c2ncccn2)C3)n1 | -4.86%
O=C1CC(c2ncc(-c3ccc4c(c3)OCCO4)[nH]2)CN1C1CC1 (stereo not drawn) | -7.8%
OC1CCCN(Cc2cn(CC3CCN(C4CCSCC4)CC3)nn2)C1 (stereo not drawn) | -2.84%
CS(=O)(=O)N1C[C@H]2CNC[C@@]2(C(=O)NCCOc2ccccc2)C1 | -1.07%
Cc1nnc(NC(=O)N2CCCN(C3CCCC3)CC2)s1 | -2.92%
CCSc1ncc(CN2CCN(c3nc(C)cnc3C)CC2)cn1 | 23.3%
NC(=O)CN1CC2(CCC1=O)CCN(C(=O)c1ccccc1F)CC2 | 33.9%
CCOC(=O)c1cccc(N2CCCC3(CCC(=O)N(C4CC4)C3)C2)n1 (stereo not drawn) | -2.93%
CCc1c(C)nc(N)nc1N1CCCC(c2nc(CCOC)no2)C1 (stereo not drawn) | 4.51%
COCc1noc(Cn2ncn3cccc3c2=O)n1 | 6.69%
Cc1n[nH]c(C)c1-c1cc(-c2cccc(O)c2)nc(N)c1C#N | -8.76%
CCCc1cnc(C)nc1N1CCC(Cc2ccc(CO)cc2)C1 (stereo not drawn) | -10.5%
CC(=O)N[C@@H](CC(C)C)C(=O)N1CCC(n2cc(C(C)(C)N)nn2)CC1 | -2.68%
COc1ccc(C(=O)C2CCCN(Cc3cc(C)n[nH]3)C2)c(OC)c1 (stereo not drawn) | -5.48%

Compound | cytotoxicity at 70.5 h
CC1CN(Cc2ccccc2Cn2cccn2)CCN1C (stereo not drawn) | -0.364%
O=C1O[C@@H]2CN(Cc3ccsc3)C[C@@H]2N1Cc1ccccn1 | 2.38%
COc1ccccc1-n1nc(-c2ccco2)n(CC(=O)NC(C)C)c1=O | -6.38%
CC(C)=CCN1C[C@@H]2CN(C(=O)c3ccc(CO)cc3)C[C@]2(C(=O)O)C1 | -12.2%
O=C(O)CCc1cc2n(n1)CCN(Cc1cnc(N3CCCC3)nc1)C2 | -2.38%
Cc1cc(C)nc(NCc2nnc3n2CCCCC3)n1 | 13.9%
Cc1nn(C)c2nc(NC(C)c3nnn[nH]3)sc12 (stereo not drawn) | 11.9%
COc1cc(F)ccc1-c1nc2c([nH]1)c(C1CC1)nn2C | -10.9%
CC1CCN(CC(=O)N(C)CCc2noc(C3CC3)n2)C1=O (stereo not drawn) | -5.01%
CNC(=O)[C@@H]1C[C@H](N)CN1Cc1cc2cc(C)cc(C)c2[nH]c1=O | -13.7%
Cc1cnn(CC2CCN(c3cc(C(C)C)nc4ccnn34)CC2)c1 | -0.486%
CC(Cc1ccc2c(c1)OCO2)c1cn(CCc2c[nH]cn2)nn1 (stereo not drawn) | -6.47%
COCCN1CCCC2(CCN(c3nc(C)nc4c3CCC4)C2)C1=O (stereo not drawn) | -4.89%
CC(C)CC(=O)N1CCc2ccc(S(=O)(=O)N3CCN(C)CC3)cc2C1 | -8.6%
CCN1CCN(C(=O)c2[nH]c3ccccc3c2Cl)[C@H]2CS(=O)(=O)C[C@H]21 | -2.45%
O=C1O[C@@H]2CN(Cc3ccccn3)C[C@@H]2N1CCCc1ccc(F)cc1 | 6.23%
Cc1cc(NCc2cc(C)oc2C(F)(F)F)n2nc(C)cc2n1 | -2.81%
CCOCCn1nc(C)cc1C(=O)N1C[C@@H](C)[C@](O)(C2CC2)C1 | -2.07%
CCOCC(C)(C)NC(=O)Nc1cc(F)ccc1OC | -5.66%
CC(=O)NCCn1ccnc1-c1cccc(C(C)N(C)C)c1 (stereo not drawn) | 5.57%
O=C(c1ccc2sccc2c1)N1CCC(C(=O)O)(n2ccnc2)CC1 | 3.47%
c1ccn2c(C3CCCN(c4ncnc5c4CCNC5)C3)nnc2c1 (stereo not drawn) | 8.25%

Compound | cytotoxicity at 70.5 h
Cc1cc(C(F)(F)F)nc(CNC(=O)CCC2CCCN(C)C2)n1 (stereo not drawn) | -6.3%
c1cc2c(cc1CN1CCCC3(CCOC3)C1)OCO2 (stereo not drawn) | 41.1%
CCc1nc(CNc2ccc(-c3nc(C4CC4)no3)cn2)no1 | -9.74%
O[C@@]1(CNCC2(Cn3cccn3)CC2)CCCN2CCCC[C@@H]21 | -11.3%
C[C@@H]1CN(c2ccc(C#N)cn2)CC[C@@]1(O)C1CCOCC1 | 27.2%
COCCN(C)C[C@@H]1CN(C(=O)c2sc3ccccc3c2C)C[C@@H]1CO | -6.69%
CN1CCCN(c2cnn(Cc3ccc(C(C)(C)C)cc3)c(=O)c2)CC1 | -8.93%
Cc1cc(NCc2cc3n(n2)CCCN(C(=O)C2CCC2)C3)nc(N)n1 | -1.07%
CC(C)N(C)S(=O)(=O)c1ccc2c(c1)CCN(C(=O)c1ccccn1)C2 | 22.8%
CCOc1ccccc1N1CCN(c2nnc(C)o2)CC1 | -13.5%
CS(=O)(=O)N1CCC(Oc2ccc(C(=O)NCCC(N)=O)cc2Cl)CC1 | 6.15%
O=C1OCCN1CCNc1ncc2c(n1)CCN2c1ccccc1 | -6.11%
CCn1c(N)nc2cc(C(=O)NCCc3ccccc3F)cnc21 | -28.6%
COc1ccccc1OC1CN(C(=O)c2ccc(C(C)=O)s2)C1 | -10.9%
CC(Cn1ccnc1)NCc1n[nH]c2c1CCC2 (stereo not drawn) | -20.8%
O=C(NCC(F)(F)F)c1coc(COc2cccc(F)c2)n1 | 14.5%
CC(C)c1ccc(N2CCc3onc(-c4ccc(F)c(F)c4)c3C2)nn1 | -6.74%
CN(C)C(=O)N1CCC(C(=O)N2CCOC(CC3CCCCC3)C2)CC1 (stereo not drawn) | -0.504%
CC(=O)NCCC1CCCCN1S(=O)(=O)c1cccc(Cl)c1 (stereo not drawn) | 36.4%
O=C1CCC2(CCN(CC[C@@H](O)c3ccccc3)CC2)CN1CC1CC1 | -5.97%
